Source: patent publication US10597388B2, “Pyridazinone herbicides” (FMC CORPORATION, priority 2014, dated 2020)

Experiments:
Assay type in all cases: in vivo
[1] = test system: barnyardgrass (Echinochloa crus-galli); test: Test A greenhouse herbicide test, pre- and postemergence
Summary of the method: (§1)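 Visual injury ratings, 0 (no effect) to 100 (complete control), versus untreated plants after roughly 10 d in a greenhouse. Compounds, formulated in a surfactant-containing non-phytotoxic solvent, were sprayed on loam–sand soil after sowing (pre) or on one- to two-leaf plants 2–10 cm tall (post).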

kochia (Kochia scoparia) [2] = test: as above
Summary of the method: as §1

[3] = test system: pigweed (Amaranthus retroflexus); test: as above
Summary of the method: as §1

[4] = test system: ragweed (common ragweed, Ambrosia elatior); test: as above
Summary of the method: as §1

[5] = test system: chickweed (common chickweed, Stellaria media); test: Test C greenhouse herbicide test, postemergence
From the text: (§2) At the same time, plants selected from these crop and weed species and also chickweed (common chickweed, Stellaria media), kochia (Kochia scoparia), and oat, wild (wild oat, Avena fatua), were planted in pots containing Redi-Earth® planting medium (Scotts Company, 14111 Scottslawn Road, Marysville, Ohio 43041) comprising spaghnum peat moss, vermiculite, wetting agent and starter nutrients and treated with postemergence applications of test chemicals formulated in the same manner. Plants ranged in height from 2 to 18 cm (1- to 4-leaf stage) for postemergence treatments. Treated plants and controls were maintained in a greenhouse for 13 to 15 d, after which time all species were compared to controls and visually evaluated. Plant response ratings, summarized in Table C, are based on a scale of 0 to 100 where 0 is no effect and 100 is complete control. A dash (-) response means no test result.

kochia (Kochia scoparia) [6] = test: Test C greenhouse herbicide test, postemergence
From the text: as §2

[7] = test system: oat, wild (wild oat, Avena fatua); test: Test C greenhouse herbicide test, postemergence
From the text: as §2

[8] = Postemergence, 125 g ai/ha, 0 to 100 scale where 0 is no effect and 100 is complete control
[9] = Postemergence, 500 g ai/ha, 0 to 100 scale, 0 is no effect, 100 is complete control
[10] = Preemergence, 125 g ai/ha, 0 to 100 scale where 0 is no effect and 100 is complete control
[11] = Preemergence, 500 g ai/ha, 0 to 100 scale where 0 is no effect and 100 is complete control
[12] = Postemergence, 500 g ai/ha, visual rating after approx. 10 d, 0 to 100 scale (0 no effect, 100 complete control)
[13] = Postemergence, 31 g ai/ha, scale 0 to 100 (0 no effect, 100 complete control)
[14] = Postemergence, 125 g ai/ha, scale 0 to 100, 0 is no effect, 100 is complete control
[15] = Postemergence, 250 g ai/ha, scale 0 to 100, 0 no effect, 100 complete control, 13 to 15 d
[16] = postemergence, 62 g ai/ha, scale 0 to 100, 0 no effect, 100 complete control
[17] = Postemergence, 31 g ai/ha, 0 to 100 scale (0 no effect, 100 complete control)

Row | SMILES | Plant response rating, Barnyardgrass [1, 8] | Barnyardgrass plant response rating [1, 9] | Barnyardgrass plant response rating [1, 10] | Plant response rating, Barnyardgrass [1, 11] | Plant response rating, Kochia (kochia (Kochia scoparia) [2]; [8]) | Kochia plant response rating (kochia (Kochia scoparia) [2]; [10]) | Plant response rating, Kochia (kochia (Kochia scoparia) [2]; [11]) | Plant response rating, Pigweed [3, 8] | Pigweed plant response rating [3, 10] | Plant response rating, Pigweed [3, 11] | Plant response rating, Ragweed [4, 8] | Ragweed plant response rating [4, 10] | Plant response rating, Ragweed [4, 11] | Plant response rating, Chickweed [5, 14] | Plant response rating, Chickweed [5, 15] | Chickweed plant response rating [5, 16] | Plant response rating, Kochia (kochia (Kochia scoparia) [6]; [14]) | Plant response rating, Kochia (kochia (Kochia scoparia) [6]; [15]) | Plant response rating, Oat, Wild [7, 14] | Plant response rating, Oat, Wild [7, 15] | also measured
1 | CC(=O)Oc1c(C)nn(C)c(=O)c1-c1c(C)sc2ccc(Cl)cc12 [Compound 108] | 30 | 90 | 20 | 100 | 90 | 90 | 100 | 90 | 100 | 100 | 70 | 90 | 100 | 95 | 98 | 90 | 95 | 100 | 90 | 90 | Plant response rating, Kochia (kochia (Kochia scoparia) [2]; [12]): 100; Plant response rating, Pigweed [3, 12]: 100; Plant response rating, Ragweed [4, 12]: 100; Plant response rating, Chickweed [5, 13]: 90; Plant response rating, Kochia (kochia (Kochia scoparia) [6]; [13]): 90; Plant response rating, Oat, Wild [7, 13]: 80
2 | CCCC(=O)Oc1c(C)nn(C)c(=O)c1-c1c(CC)sc2ccc(C)cc12 [Compound 107] | 60 | 100 | 70 | 100 | 80 | 20 | 90 | 90 | 100 | 100 | 90 | 90 | 100 | 95 | 98 | 90 | 90 | 90 | 40 | 35 | Plant response rating, Kochia (kochia (Kochia scoparia) [2]; [12]): 90; Plant response rating, Pigweed [3, 12]: 90; Plant response rating, Ragweed [4, 12]: 90; Plant response rating, Chickweed [5, 13]: 90; Plant response rating, Kochia (kochia (Kochia scoparia) [6]; [13]): 70; Plant response rating, Oat, Wild [7, 13]: 20
3 | COC(=O)Oc1c(C)nn(C)c(=O)c1-c1c(C)sc2ccc(C)cc12 [Compound 80] | 70 | 80 | 70 | – | 90 | 90 | 90 | 90 | 90 | 100 | 80 | 80 | 90 | 95 | 98 | 95 | 90 | 90 | 90 | 95 | Plant response rating, Barnyardgrass ([1]; Preemergence, 500 g ai/ha, 0 to 100 scale, 0 no effect, 100 complete control): 90; Kochia plant response rating (kochia (Kochia scoparia) [2]; [9]): 90; Pigweed plant response rating [3, 9]: 90; Ragweed plant response rating [4, 9]: 90; Chickweed plant response rating [5, 17]: 90; Kochia plant response rating (kochia (Kochia scoparia) [6]; [17]): 90; Kochia plant response rating (kochia (Kochia scoparia) [6]; [16]): 90; Oat, Wild plant response rating [7, 17]: 90; Oat, Wild plant response rating [7, 16]: 90
4 | CCCC(=O)Oc1c(C)nn(C)c(=O)c1-c1c(C)sc2ccc(C)cc12 [Compound 105] | 50 | 90 | 20 | 100 | 90 | 100 | 100 | 90 | 100 | 100 | 90 | 100 | 100 | 98 | 100 | 95 | 95 | 100 | 90 | 90 | Plant response rating, Kochia (kochia (Kochia scoparia) [2]; [12]): 90; Plant response rating, Pigweed [3, 12]: 90; Plant response rating, Ragweed [4, 12]: 100; Plant response rating, Chickweed [5, 13]: 90; Plant response rating, Kochia (kochia (Kochia scoparia) [6]; [13]): 95; Plant response rating, Oat, Wild [7, 13]: 60
5 | COC(=O)Oc1cnn(C)c(=O)c1-c1c(C)sc2ccccc12 [Compound 97] | 30 | 90 | 20 | 100 | 90 | 80 | 100 | 90 | 100 | 100 | 90 | 90 | 100 | 15 | 60 | 0 | 70 | 85 | 5 | 10 | Plant response rating, Kochia (kochia (Kochia scoparia) [2]; [12]): 100; Plant response rating, Pigweed [3, 12]: 100; Plant response rating, Ragweed [4, 12]: 100; Chickweed plant response rating [5, 17]: 0; Kochia plant response rating (kochia (Kochia scoparia) [6]; [16]): 0; Oat, Wild plant response rating [7, 16]: 5
